What is called IC50 is the concentration that gives 50% inhibition. Broadly, the Ki is the equilibrium dissociation constant of an inhibitor or competing ligand from its target.

Common to all, as to assay: Radioligand Binding Assay
In test [1] the target is Adenosine receptor A2a (Homo sapiens, UniProt P29274). The method, then: (§1) For all four adenosine receptors (A1, A2A, A2B and A3) filtration binding assay was performed. Radioligand binding competition assay was done in duplicates in the wells of a 96-well plate (Master Block, Greiner, 786201) containing binding buffer, receptor membrane extracts, a fixed concentration of tracer and test compound at increasing concentrations. In order to eliminate effect of buffer components, binding buffer was the same for all four receptors and contained: 50 mM Tris-HCl pH 7.4, 5 mM MgCl2, 1 mM EDTA, 150 mM NaCl, 0.1% Na-azide, and 5 U/ml adenosine-deaminase. Nonspecific binding was determined by co-incubation with 200-fold excess of cold competitor. In all radioligand binding experiments, the samples were incubated in a final volume of 0.1 ml for 60 minutes at 25° C. and then filtered over Unifilter plates (Perkin Elmer) pre-treated for 2 hours to limit tracer non-specific binding. Filters were washed five times with 0.5 ml of ice-cold washing buffer (50 mM Tris-HCl pH 7.4, 5 mM MgCl2, 1 mM EDTA) and 50 μl of Microscint 20 (Perkin Elmer) were added to each filter. The plates are incubated 15 min at room temperature on an orbital shaker and then counted with a TopCount™ for 1 min/well.
Chain of Adenosine receptor A2a (P29274 whole entry): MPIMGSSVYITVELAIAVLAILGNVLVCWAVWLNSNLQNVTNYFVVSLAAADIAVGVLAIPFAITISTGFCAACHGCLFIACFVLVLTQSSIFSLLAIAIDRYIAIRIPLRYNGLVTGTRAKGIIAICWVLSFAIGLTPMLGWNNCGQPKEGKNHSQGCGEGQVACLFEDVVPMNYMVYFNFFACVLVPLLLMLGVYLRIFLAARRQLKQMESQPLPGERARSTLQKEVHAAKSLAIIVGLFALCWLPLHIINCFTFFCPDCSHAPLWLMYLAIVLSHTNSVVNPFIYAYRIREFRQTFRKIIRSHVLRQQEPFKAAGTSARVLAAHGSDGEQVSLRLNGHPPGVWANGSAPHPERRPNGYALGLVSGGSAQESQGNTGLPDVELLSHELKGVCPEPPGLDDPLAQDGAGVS

The target of test [2] is T1, Adenosine receptor A2b (Homo sapiens, UniProt P29275).
T1 sequence (P29275 whole entry): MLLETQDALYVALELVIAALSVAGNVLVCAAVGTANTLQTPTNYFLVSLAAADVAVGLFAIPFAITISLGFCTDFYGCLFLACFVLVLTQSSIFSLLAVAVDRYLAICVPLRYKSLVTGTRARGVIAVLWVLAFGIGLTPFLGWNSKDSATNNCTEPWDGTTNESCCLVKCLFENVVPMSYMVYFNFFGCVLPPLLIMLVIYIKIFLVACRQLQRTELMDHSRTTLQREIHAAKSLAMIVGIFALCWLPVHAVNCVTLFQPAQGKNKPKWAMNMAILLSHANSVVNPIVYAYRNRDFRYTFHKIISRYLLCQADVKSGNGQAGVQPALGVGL
As for the experimental part:
as §1

In test [3] the target is T2, Adenosine receptor A3 (Homo sapiens, UniProt P0DMS8).
T2 sequence (P0DMS8 whole entry): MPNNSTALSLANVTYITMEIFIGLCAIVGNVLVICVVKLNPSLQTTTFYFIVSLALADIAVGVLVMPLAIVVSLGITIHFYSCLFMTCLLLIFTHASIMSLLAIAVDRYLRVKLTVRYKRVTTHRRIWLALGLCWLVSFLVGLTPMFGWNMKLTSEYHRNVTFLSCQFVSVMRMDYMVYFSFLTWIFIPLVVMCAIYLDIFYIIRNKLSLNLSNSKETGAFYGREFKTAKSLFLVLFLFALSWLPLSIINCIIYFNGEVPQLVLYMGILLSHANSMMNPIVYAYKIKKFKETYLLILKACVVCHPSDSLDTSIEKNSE
As for the experimental part: as §1

With `Fc1ccccc1-c1nc(Nc2cccnc2)nnc1-c1ccnc(C(F)(F)F)c1` [US12391670, Example 8], the IC50 turned out to be 24100 nM in test [1], 250 nM in test [2] and 1350 nM in test [3]. For the same compound, the inhibitory constant (Ki) in test [1] stood at 24000 nM; in test [2], 224 nM; in test [3] it was 1020 nM.
Regarding `Cc1nsc(Nc2nnc(-c3ccnc(C(F)(F)F)c3)c(-c3ccccc3F)n2)n1` [US12391670, Example 11], the inhibition constant Ki in test [1] was greater than 20000 nM; in test [2], 891 nM. The IC50 in test [2] is 1010 nM.

These data come from BindingDB's records for patent US12391670 (Leadxpro, 2025).
